This passage reports MIC results from patent US11180504B2 (ORCHID PHARMA LTD., priority 2016, dated 2021).

Assay [1] relates to methicillin-sensitive Staphylococcus aureus. Put plainly: MIC by broth micro-dilution (CLSI), methicillin-sensitive S. aureus. Type of assay: cell-based. To be noted: MSSA S. aureus ATCC29213. (In broth dilution the organism is exposed to a series of concentrations in liquid medium.)
Assay [2] deals with carbapenem sensitive Escherichia coli. As to the kind of experiment: MIC by broth micro-dilution (CLSI), carbapenem sensitive E. coli. Type of assay: cell-based.
Assay [3] has as its system extended spectrum β lactamase (ESBL) SHV18 producing Klebsiella pneumoniae. As to the kind of experiment: MIC by broth micro-dilution (CLSI), ESBL SHV18 producing K. pneumoniae. Type of assay: cell-based. To be noted: ESBL +ve (SHV-18) K. pneumoniae ATCC700603.
Assay [4] deals with carbapenemase producing K. pneumoniae. As to the kind of experiment: MIC by broth micro-dilution (CLSI), carbapenemase producing K. pneumoniae. Type of assay: cell-based, Klebsiella pneumoniae.
The subject of assay [5] is carbapenem sensitive Pseudomonas aeruginosa. Put plainly: MIC by broth micro-dilution (CLSI), carbapenem sensitive P. aeruginosa. Type of assay: cell-based.
Setting [6] is: Staphylococcus aureus, ATCC 29213 / MSSA, read-out: MIC.
The mark [7] stands for this setting: Escherichia coli, ATCC25922, ESBL −ve E. coli ATCC25922, read-out: MIC.
[8] abbreviates: Klebsiella pneumoniae, ATCC700603, 22 h, read-out: MIC.
[9] abbreviates: Klebsiella pneumoniae, ATCCBAA1705, KPC-2 K. pneumoniae ATCC BAA-1705, read-out: MIC.
The mark [10] stands for this setting: Pseudomonas aeruginosa, ATCC27853, Meropenem susceptible P. aeruginosa ATCC27853, read-out: MIC.

Structures are written as SMILES. Values after ≈ are worked out from the molar mass of the structure shown. Like-named read-outs stand apart in the source and are kept apart here.

One may read the MIC as the least concentration at which growth counts as inhibited. For `C[C@@H](NC(=O)C(F)F)[C@H]1C(=O)N2C(C(=O)O)=C(S[C@@H]3CN[C@H](C(=O)NCCO)C3)[C@H](C)[C@H]12` [Example 104], the MIC worked out at 4 µg/mL (≈ 8.39 µM) in assay [1] (setting [6]); 0.5 µg/mL (≈ 1.05 µM) in assay [2] (setting [7]); 1 µg/mL (≈ 2.1 µM) in assay [3] (setting [8]); 4 µg/mL (≈ 8.39 µM) in assay [4] (setting [9]); 128 µg/mL (≈ 269 µM) in assay [5] (setting [10]).

As to `C[C@@H](NC(=O)C1(C(F)(F)F)CC1)[C@H]1C(=O)N2C(C(=O)O)=C(S[C@@H]3CN[C@H](C(=O)N(C)C)C3)[C@H](C)[C@H]12` [Example 17], the MIC was 4 µg/mL (≈ 7.71 µM) in assay [1] (setting [6]); 16 µg/mL (≈ 30.9 µM) in assay [2] (setting [7]); over 128 µg/mL in assay [3] (setting [8]); 32 µg/mL (≈ 61.7 µM) in assay [4] (setting [9]); 128 µg/mL (≈ 247 µM) in assay [5] (setting [10]).

Regarding `C[C@@H](NC(=O)[C@H]1CCCN1)[C@H]1C(=O)N2C(C(=O)O)=C(S[C@@H]3CN[C@H](C(=O)N4CC[C@@H](N)C4)C3)[C@H](C)[C@H]12` [Example 206], the MIC was 64 µg/mL (≈ 123 µM) in assay [1] (setting [6]); 4 µg/mL (≈ 7.68 µM) in assay [2] (setting [7]); 4 µg/mL (≈ 7.68 µM) in assay [3] (setting [8]); 4 µg/mL (≈ 7.68 µM) in assay [4] (setting [9]); 4 µg/mL (≈ 7.68 µM) in assay [5] (setting [10]).

Take `CNCC(=O)N[C@@H](C)[C@H]1C(=O)N2C(C(=O)O)=C(S[C@H]3CN[C@H](C(=O)N4CC[C@@H](N)C4)C3)[C@H](C)[C@H]12` [Example 95, (4R,5S,6R)-3-((3R,5S)-5-((R)-3-aminopyrrolidine-1-carbonyl)pyrrolidin-3-ylthio)-4-methyl-6-((S)-1-(2-(methylamino)acetamido)ethyl)-7-oxo-1-azabicyclo[3.2.0]hept-2-ene-2-carboxylic acid]: the MIC in assay [1] (setting [6]) came to 32 µg/mL (≈ 64.7 µM); in assay [2] (setting [7]), 1 µg/mL (≈ 2.02 µM); in assay [3] (setting [8]) it was 2 µg/mL (≈ 4.04 µM); in assay [4] (setting [9]), 2 µg/mL (≈ 4.04 µM); in assay [5] (setting [10]), 2 µg/mL (≈ 4.04 µM).

With `CCS(=O)(=O)N[C@H](C)[C@H]1C(=O)N2C(C(=O)O)=C(S[C@@H]3CN[C@H](C(=O)N(C)C)C3)[C@H](C)[C@H]12` [Example 10], the MIC is 16 µg/mL (≈ 33.7 µM) in assay [1] (setting [6]); 1 µg/mL (≈ 2.11 µM) in assay [2] (setting [7]); 2 µg/mL (≈ 4.21 µM) in assay [3] (setting [8]); 4 µg/mL (≈ 8.43 µM) in assay [4] (setting [9]); over 128 µg/mL in assay [5] (setting [10]).

Consider `C[C@@H](NC(=O)C(F)F)[C@H]1C(=O)N2C(C(=O)O)=C(S[C@@H]3CN[C@H](C(=O)N4CCSCC4)C3)[C@H](C)[C@H]12` [Example 35], for which the minimal inhibitory concentration (MIC) in assay [1] (setting [6]) was 1 µg/mL (≈ 1.93 µM); in assay [2] (setting [7]), 1 µg/mL (≈ 1.93 µM); in assay [3] (setting [8]), 4 µg/mL (≈ 7.71 µM); in assay [4] (setting [9]), 2 to 4 µg/mL (≈ 3.86 to 7.71 µM); in assay [5] (setting [10]), over 128 µg/mL.

`CC(C)C[C@H](N)C(=O)N[C@H](C)[C@H]1C(=O)N2C(C(=O)O)=C(S[C@@H]3CN[C@H](C(=O)N(C)C)C3)[C@H](C)[C@H]12` [Example 31]: the MIC in assay [1] (setting [6]) was 16 µg/mL (≈ 32.3 µM); in assay [2] (setting [7]), 4 µg/mL (≈ 8.07 µM); in assay [3] (setting [8]), 16 µg/mL (≈ 32.3 µM); in assay [4] (setting [9]) it was 4 µg/mL (≈ 8.07 µM); in assay [5] (setting [10]), over 128 µg/mL.

On to `C[C@@H](NC(=O)C(F)F)[C@H]1C(=O)N2C(C(=O)O)=C(S[C@@H]3CN[C@H](C(=O)N4CC[C@@H](F)C4)C3)[C@H](C)[C@H]12` [Example 210], for which the MIC in assay [1] amounted to 2 µg/mL (≈ 3.96 µM); in assay [2] (ESBL −ve E. coli ATCC25922) it was 1 µg/mL (≈ 1.98 µM); in assay [3], 4 µg/mL (≈ 7.93 µM); in assay [4] (KPC-2 K. pneumoniae ATCC BAA-1705) it was 4 µg/mL (≈ 7.93 µM); in assay [5] (Meropenem susceptible P. aeruginosa ATCC27853) it was 64 µg/mL (≈ 127 µM).

As to `C[C@@H](NC(=O)[C@H](N)Cc1ccccc1)[C@H]1C(=O)N2C(C(=O)O)=C(S[C@@H]3CN[C@H](C(=O)N(C)C)C3)[C@H](C)[C@H]12` [Example 72], the minimum inhibitory concentration (MIC) in assay [1] (setting [6]) was 32 µg/mL (≈ 60.4 µM); in assay [2] (setting [7]), 32 µg/mL (≈ 60.4 µM); in assay [3] (setting [8]), over 128 µg/mL; in assay [4] (setting [9]), over 128 µg/mL; in assay [5] (setting [10]) it was over 128 µg/mL.

On to `C[C@@H](NC(=O)CO)[C@H]1C(=O)N2C(C(=O)O)=C(S[C@@H]3CN[C@H](C(=O)N(C)C)C3)[C@H](C)[C@H]12` [Example 60], for which the MIC was 32 µg/mL (≈ 72.6 µM) in assay [1] (setting [6]); 16 µg/mL (≈ 36.3 µM) in assay [2] (setting [7]); 32 µg/mL (≈ 72.6 µM) in assay [3] (setting [8]); 64 µg/mL (≈ 145 µM) in assay [4] (setting [9]); over 128 µg/mL in assay [5] (setting [10]).

Consider `C[C@@H](NC(=O)C(F)F)[C@H]1C(=O)N2C(C(=O)O)=C(S[C@@H]3CN[C@H](C(=O)N4CC[C@H](NCC(N)=O)C4)C3)[C@H](C)[C@H]12` [Example 153], for which the minimum inhibitory concentration (MIC) was 8 µg/mL (≈ 14.3 µM) in assay [1] (setting [6]); 1 µg/mL (≈ 1.79 µM) in assay [2] (setting [7]); 2 µg/mL (≈ 3.58 µM) in assay [3] (setting [8]); 8 µg/mL (≈ 14.3 µM) in assay [4] (setting [9]); 64 µg/mL (≈ 115 µM) in assay [5] (setting [10]).

Regarding `C[C@@H](NS(C)(=O)=O)[C@H]1C(=O)N2C(C(=O)O)=C(S[C@@H]3CN[C@H](C(=O)N(CCN)CCO)C3)[C@H](C)[C@H]12` [Example 201], the MIC in assay [1] (setting [6]) was 16 µg/mL (≈ 30.8 µM); in assay [2] (setting [7]), 2 µg/mL (≈ 3.85 µM); in assay [3] (setting [8]) it was 16 µg/mL (≈ 30.8 µM); in assay [4] (setting [9]), 64 µg/mL (≈ 123 µM); in assay [5] (setting [10]) it was 16 µg/mL (≈ 30.8 µM).

In the case of `COC(=O)N[C@H](C)[C@H]1C(=O)N2C(C(=O)O)=C(S[C@@H]3CN[C@H](C(=O)N(C)C)C3)[C@H](C)[C@H]12` [Example 14], the MIC in assay [1] (setting [6]) was determined as 4 µg/mL (≈ 9.08 µM); in assay [2] (setting [7]), 0.5 µg/mL (≈ 1.14 µM); in assay [3] (setting [8]), 4 µg/mL (≈ 9.08 µM); in assay [4] (setting [9]) it was 4 µg/mL (≈ 9.08 µM); in assay [5] (setting [10]), 128 µg/mL (≈ 291 µM).

With `C[C@@H](NC(=O)C(F)F)[C@H]1C(=O)N2C(C(=O)O)=C(S[C@H]3C[C@@H](C(=O)N(C)C)N(C=N)C3)[C@H](C)[C@H]12` [Example 108], the MIC in assay [1] (setting [6]) is 2 µg/mL (≈ 4.1 µM); in assay [2] (setting [7]), 1 µg/mL (≈ 2.05 µM); in assay [3] (setting [8]), 4 µg/mL (≈ 8.2 µM); in assay [4] (setting [9]), 16 µg/mL (≈ 32.8 µM); in assay [5] (setting [10]) it was 128 µg/mL (≈ 263 µM).

`CC(C)C[C@@H](F)C(=O)N[C@H](C)[C@H]1C(=O)N2C(C(=O)O)=C(S[C@@H]3CN[C@H](C(=O)N(C)C)C3)[C@H](C)[C@H]12` [Example 79]: the MIC was 4 µg/mL (≈ 8.02 µM) in assay [1] (setting [6]); 32 µg/mL (≈ 64.2 µM) in assay [2] (setting [7]); over 128 µg/mL in assay [3] (setting [8]); over 128 µg/mL in assay [4] (setting [9]); over 128 µg/mL in assay [5] (setting [10]).

In the case of `C[C@@H](NC(=O)CC#N)[C@H]1C(=O)N2C(C(=O)O)=C(S[C@@H]3CN[C@H](C(=O)N(C)C)C3)[C@H](C)[C@H]12` [Example 128], the MIC in assay [1] (setting [6]) came to 16 µg/mL (≈ 35.6 µM); in assay [2] (setting [7]), 4 µg/mL (≈ 8.9 µM); in assay [3] (setting [8]), 8 µg/mL (≈ 17.8 µM); in assay [4] (setting [9]) it was 8 µg/mL (≈ 17.8 µM); in assay [5] (setting [10]), 64 µg/mL (≈ 142 µM).

As for `C[C@H](NS(C)(=O)=O)C(=O)N[C@H](C)[C@H]1C(=O)N2C(C(=O)O)=C(S[C@@H]3CN[C@H](C(=O)N(C)C)C3)[C@H](C)[C@H]12` [Example 51], the MIC in assay [1] (setting [6]) was 8 µg/mL (≈ 15 µM); in assay [2] (setting [7]) it was 4 µg/mL (≈ 7.52 µM); in assay [3] (setting [8]), 32 µg/mL (≈ 60.2 µM); in assay [4] (setting [9]), 32 µg/mL (≈ 60.2 µM); in assay [5] (setting [10]), over 128 µg/mL.

For `C[C@@H](NC(=O)C[S+]([O-])C(F)F)[C@H]1C(=O)N2C(C(=O)O)=C(S[C@@H]3CN[C@H](C(=O)N(C)C)C3)[C@H](C)[C@H]12` (mixture of isomers) [Example 82], the minimal inhibitory concentration (MIC) was determined as 8 µg/mL in assay [1] (setting [6]); 1 µg/mL in assay [2] (setting [7]); 2 µg/mL in assay [3] (setting [8]); 8 µg/mL in assay [4] (setting [9]); 128 µg/mL in assay [5] (setting [10]).
